No end group written: not given here.

The Kd is the free concentration of one partner at which half of the binding sites on the other are occupied at equilibrium, for simple one-to-one binding. Higher therefore signals weaker binding.

Assay [1] relates to interaction between SRPK1 and SRSF1. Nature of the assay: In vitro GST pull-down of GST-SRSF1 with SRPK1ΔNS3. The format is binding. The settings on record: 500 nM GST-SRSF1, 500 nM SRPK1, 4°C 3 h, SDS-PAGE, Coomassie Blue.
In the next assay the target is SRPK1 (Homo sapiens, UniProt Q96SB4). The assay can be described thus: In vitro radioactive kinase assay, SRSF1 phosphorylation by SRPK1. Format: biochemical. The settings on record: 50 μM [32P]ATP, different inhibitor concentrations.
For another assay, the system named is CLK1. The settings on record: ref Batson et al., 2017; cited from earlier work.
The next assay relates to SRPK2. The settings on record: ref Batson et al., 2017; cited from earlier work.
A further assay deals with SRPK1 (SRPK1ΔNS3) (Homo sapiens, UniProt Q96SB4). Nature of the assay: Isothermal titration calorimetry. The format is binding. Particulars: SD. (Isothermal titration calorimetry measures the heat released or taken up as one component is titrated into another.)

As to GRKKRRQRRRPQSWQDLKDH [control peptide], in assay [1], the “inhibition of the binding of GST-SRSF1 and SRPK1ΔNS3 (GST pull-down)” value was “did not inhibit”. The “inhibition of SRSF1 phosphorylation by SRPK1 (in words)” value at SRPK1 is reported as “did not inhibit”.

Turning to `O=C(Nc1cc(C(F)(F)F)ccc1N1CCN(Cc2ccccn2)CC1)c1ccc(-c2ccncc2)o1` [SPHINX31], the “affinity for CLK1 lower than that of SRPK1” value in the assay on CLK1 is reported as 50 fold. In the assay on SRPK2, the “affinity for SRPK2 lower than that of SRPK1” value is listed as 50 fold.

The compound RERARTR [7-mer, R-E-R-A-R-T-R] came in with a Kd on SRPK1 (SRPK1ΔNS3) of 112 ± 9.9 µM.

Source of the values: publication PMC8102418 (iScience, 2021).
